# Laboratory results from US20220386606A1, “SPECIFICALLY SUBSTITUTED 3-PHENYL-5-SPIROCYCLOPENTYL-3-PYRROLIN-2-ONES AND THEIR USE AS HERBICIDES” (Bayer Aktiengesellschaft, priority 2019, published 2022).
# Legend:
# [1] = system: ECHCG; experiment: Pre-emergence herbicidal action against ECHCG; assay type: in vivo, Echinochloa crus-galli; conditions: 320 g/ha, scored visually after 3 weeks vs untreated controls
# Excerpt: (§1) Seeds of monocotyledonous and dicotyledonous weed plants and crop plants are laid out in sandy loam soil in wood-fiber pots and covered with soil. The compounds of the invention, formulated in the form of wettable powders (WP) or as emulsion concentrates (EC), are then applied to the surface of the covering soil as aqueous suspension or emulsion at a water application rate equating to 600 to 800 L/ha with addition of 0.2% wetting agent.
# (§2) After the treatment, the pots are placed in a greenhouse and kept under good growth conditions for the trial plants. The damage to the test plants is scored visually after a test period of 3 weeks by comparison with untreated controls (herbicidal activity in percent (%): 100% activity=the plants have died, 0% activity=like control plants).
# [2] = system: VIOTR; experiment: Pre-emergence herbicidal action against VIOTR; assay type: in vivo, Viola tricolor; conditions: 320 g/ha
# Excerpt: as §1, §2
# [3] = system: ALOMY; experiment: Pre-emergence herbicidal action against ALOMY; assay type: in vivo, Alopecurus myosuroides; conditions: 320 g/ha, scored visually after 3 weeks vs untreated controls
# Excerpt: as §1, §2
# [4] = system: ALOMY; experiment: Post-emergence herbicidal action against ALOMY; assay type: in vivo, Alopecurus myosuroides; conditions: 80 g/ha, visual assessment after about 3 weeks
# Procedure: (§3) Seeds of monocotyledonous and dicotyledonous weed and crop plants are laid out in sandy loam soil in wood-fiber pots, covered with soil and cultivated in a greenhouse under good growth conditions. 2 to 3 weeks after sowing, the test plants are treated at the one-leaf stage. The compounds of the invention, formulated in the form of wettable powders (WP) or as emulsion concentrates (EC), are then sprayed onto the green parts of the plants as aqueous suspension or emulsion at a water application rate equating to 600 to 800 l/ha with addition of 0.2% wetting agent. After the test plants have been left to stand in the greenhouse under optimal growth conditions for about 3 weeks, the action of the preparations is assessed visually in comparison to untreated controls (herbicidal action in percent (%): 100% activity=the plants have died, 0% activity=like control plants).
# [5] = system: DIGSA; experiment: Post-emergence herbicidal action against DIGSA; assay type: in vivo, Digitaria sanguinalis; conditions: 80 g/ha, visual assessment about 3 weeks after treatment vs untreated controls
# Procedure: as §3
# [6] = system: SETVI; experiment: Post-emergence herbicidal action against SETVI; assay type: in vivo, Setaria viridis; conditions: 80 g/ha, visual assessment about 3 weeks after treatment vs untreated controls
# Procedure: as §3
# [7] = system: DIGSA; experiment: Pre-emergence herbicidal action against DIGSA; assay type: in vivo, Digitaria sanguinalis; conditions: 320 g/ha, scored visually after 3 weeks vs untreated controls
# Excerpt: as §1, §2
# [8] = system: LOLRI; experiment: Post-emergence herbicidal action against LOLRI; assay type: in vivo, Lolium rigidum; conditions: 80 g/ha, visual assessment about 3 weeks after treatment vs untreated controls
# Procedure: as §3
# [9] = system: AVEFA; experiment: Pre-emergence herbicidal action against AVEFA; assay type: in vivo, Avena fatua; conditions: 320 g/ha, scored visually after 3 weeks vs untreated controls
# Excerpt: as §1, §2
# [10] = system: SETVI; experiment: Pre-emergence herbicidal action against SETVI; assay type: in vivo, Setaria viridis; conditions: 320 g/ha, scored visually after 3 weeks vs untreated controls
# Excerpt: as §1, §2
# [11] = system: ECHCG; experiment: Post-emergence herbicidal action against ECHCG; assay type: in vivo, Echinochloa crus-galli; conditions: 80 g/ha, visual assessment about 3 weeks after treatment vs untreated controls
# Procedure: as §3
# [12] = system: LOLRI; experiment: Pre-emergence herbicidal action against LOLRI (Table 8, titled post-emergence at 320 g/ha); assay type: in vivo, Lolium rigidum; conditions: table stands in the pre-emergence section
# Excerpt: as §1, §2
# [13] = system: AVEFA; experiment: Post-emergence herbicidal action against AVEFA; assay type: in vivo, Avena fatua; conditions: 80 g/ha, visual assessment after about 3 weeks
# Procedure: as §3
# [14] = system: AMARE; experiment: Pre-emergence herbicidal action against AMARE; assay type: in vivo, Amaranthus retroflexus; conditions: 320 g/ha
# Excerpt: as §1, §2
SMILES,Pre-emergence action against ECHCG in % [1] [%],Pre-emergence action against VIOTR in % [2] [%],Pre-emergence action against ALOMY in % [3] [%],Post-emergence action against ALOMY in % [4] [%],Post-emergence action against DIGSA in % [5] [%],Post-emergence action against SETVI in % [6] [%],Pre-emergence action against DIGSA in % [7] [%],Post-emergence action against LOLRI in % [8] [%],Pre-emergence action against AVEFA in % [9] [%],Pre-emergence action against SETVI in % [10] [%],Post-emergence action against ECHCG in % [11] [%],Pre-emergence herbicidal action against LOLRI in % [12] [%],Post-emergence action against AVEFA in % [13] [%],Pre-emergence action against AMARE in % [14] [%]
CC#Cc1cc(C)c(C2=C(O)C3(CCC(COCC)C3)NC2=O)c(Br)c1 (centres unmarked) [Example I-20],100,100,100,100,90,100,100,100,100,100,100,100,–,–
CC#Cc1cc(C)c(C2=C(O)C3(CCC(COC)C3)NC2=O)c(OC)c1 (centres unmarked) [Example I-33],–,100,100,100,100,100,100,100,80,100,100,100,100,–
C=CCOCC1CCC2(C1)NC(=O)C(c1c(C)cc(C#CC)cc1OC)=C2O (centres unmarked) [Example I-45],100,80,80,90,90,100,100,–,–,100,100,100,80,–
C=CCOCC1CCC2(C1)NC(=O)C(c1c(F)cc(C#CC)cc1OC)=C2O (centres unmarked) [Example I-55],100,–,100,100,–,100,100,–,–,100,100,100,90,80
C#CCOCC1CCC2(C1)NC(=O)C(c1c(C)cc(C#CC)cc1OC)=C2O (centres unmarked) [Example I-76],100,90,100,90,90,100,100,90,–,100,100,100,90,–
CC#Cc1cc(Br)c(C2=C(OC(=O)C(C)C)C3(CCC(COCC)C3)NC2=O)c(CC)c1 (centres unmarked) [Example P-43],–,100,–,–,–,–,–,–,–,–,–,–,–,–
CC#Cc1cc(C)c(C2=C(OC(=O)C(C)C)C3(CCC(COCC)C3)NC2=O)c(F)c1 (centres unmarked) [Example P-59],100,100,100,100,100,100,100,100,100,100,100,100,90,–
CC#Cc1cc(F)c(C2=C(OC(=O)C(C)C)C3(CCC(COC)C3)NC2=O)c(OC)c1 (centres unmarked) [Example P-65],100,80,100,90,100,100,100,100,100,100,90,100,90,–
CC#Cc1cc(F)c(C2=C(OC(=O)C(C)C)C3(CCC(COC)C3)NC2=O)c(OC)c1 (centres unmarked) [Example P-66],100,–,100,90,100,100,100,100,100,100,100,90,90,–
CC#Cc1cc(Br)c(C2=C(OC(=O)OCC)C3(CCC(COC)C3)NC2=O)c(OCC)c1 (centres unmarked) [Example P-90],100,–,100,100,90,100,100,100,100,100,100,100,80,–
CC#Cc1cc(Br)c(C2=C(OC(=O)OCC)C3(CCC(COCC)C3)NC2=O)c(OCC)c1 (centres unmarked) [Example P-95],100,–,100,100,80,100,100,90,100,100,100,100,80,–
C#CCOCC1CCC2(C1)NC(=O)C(c1c(F)cc(C#CC)cc1OC)=C2OC(=O)OCC (centres unmarked) [Example P-104],100,–,100,100,90,100,100,–,–,100,100,100,90,100
